Results reported in US20100168146A1, “Composition Comprising (R)-Spiro[L-Azabicyclo[2.2.2]Octane-3,2'(3'H)-Furo[2,3-B]Pyridine (AZD0328) and its Use in the Treatment of Alzheimer's Disease, ADHD or Cognitive Dysfunction” (priority 2008, published 2010).

How the values were obtained:
rats = assay: Nicotine drug discrimination; conditions: rat, sc, training drug
Description: AZD0328 was tested for its potential to produce nicotine-like stimulus effects after subcutaneous administration in a drug-discrimination procedure (Table 3).

[1] = Pharmacological activity of metabolite; conditions: major metabolite
Description: Pyridinyl methylation of AZD0328 was a unique polar metabolite (M2) observed in dog hepatocytes. Other minor hydroxylation/oxidation and glucuronide conjugation products were detected in monkey, dog, rat, and guinea pig hepatocyte incubations and mini-pig hepatic microsome incubations. […] Analysis of plasma and urine samples from either orally or iv dosed rats confirmed N-oxide product of AZD0328 was a main product in the excretion and circulation. The percentage of AZD0328 N-oxide in the plasma from male rats was much higher than from females.

CN1CCCC1c1cccnc1 (centres unmarked) [nicotine, reference compound]
Response rates (rats): not significantly affected

[O-][N+]12CCC(CC1)C1(Cc3cccnc3O1)C2 (centres unmarked) [quinuclidinyl-N-oxide of AZD0328]
Pharmacological activity [1]: pharmacological inactive
